This is an account of results in patent publication US20020081731A1, “MANIPULATION OF PLANT CELL AND TISSUE CULTURES” (priority 1995, published 2002).

This assay relates to E. californica suspension subcultures. As to the kind of experiment: Seed pretreatment, HPLC analysis of suspension subculture extracts. The assay is classed as cell-based, Eschscholtzia californica. As to conditions: ungerminated seeds pretreated or not pretreated; T1 and T3 conditions; organic solvent extract of cell biomass. An excerpt: Ungerminated E. californica seeds were either pretreated by exposure to 5-azacytidine, or not pretreated. After uniform germination, callus induction and subculture, suspension initiation, and suspension subculture, the resulting suspension subcultures were subjected to T1 (control) and T3 conditions.

As for `Nc1ncn([C@@H]2O[C@H](CO)[C@@H](O)[C@H]2O)c(=O)n1` [5-azacytidine], the “size, number, and location of peaks in the chromatograms” value was “significantly altered the size, number, and location of peaks”.
